From patent US12521425B2, “Method of liver cancer treatment with safranal-based formulations” (priority 2019, dated 2026)

What was measured:
[1] = test system: HepG2 cells; assay: RNAseq differential gene expression and GO enrichment; format: cell-based, Homo sapiens; settings: for genes significantly differentially expressed: vs untreated
Protocol: RNAseq libraries construction and sequencing. Total RNA was isolated from three biological replicates of safranal treatments and untreated sample using RNeasy Mini Kit (Qiagen) following the manufacturer's instructions. The RNAseq libraries were prepared using TruSeq RNA sample prep kit (Illumina, Inc.) following the manufacturer's instructions. Briefly, TruSeq RNA sample prep kit converts the poly-A containing mRNA in total RNA into a cDNA library using poly-T oligo-attached magnetic bead selection. Following mRNA purification, the RNA is chemically fragmented prior to reverse transcription and cDNA generation. The fragmentation step results in an RNAseq library that includes inserts that range in size from approximately 100-400 bp. The average insert size in an Illumina TruSeq RNA sequencing library is approximately 200 bp. The cDNA fragments then go through an end repair process, the addition of a single ‘A’ base to the 3′ end and then ligation of the adapters. Then, the products are purified and enriched with PCR to create the final double stranded cDNA libraries. Finally, libraries quality control and quantification were performed with a Bioanalyzer Chip DNA 1000 series II (Agilent) and sequenced directly using the high-throughput Illumina HiSeq sequencing system (Illumina, Inc.).
Alignment and analysis of Illumina reads against the reference genome. The data was processed through the standard RNAseq analysis pipeline at NYUAD. Briefly, alignments were performed using tophat2 v2.1.0 with the parameters “-no-novel-junctions” and “-G” when specifying the genome file. Following the tophat2 alignment stage, read counts were generated using HTseq count, and the counts were analyzed using the DESeq2 R library. The reference genome and GFF annotation correspond to the Homo sapiens GRCh38.p2 genome version. Venn diagram summarizing the gene expression analysis was constructed using the web-based tool InteractiVenn. Heatmaps were produced by Excel.
Gene set enrichment analysis. Functional and gene set enrichment analysis of DEGs was performed using eXploring Genomic Relations (XGR) which is an open source tool for enrichment analysis with default parameters. The enrichment test is based on Hypergeometric distribution to identify the enriched gene ontology terms. The false positive rate was calculated by simulating a random set of genes of different sizes and found they were independent of the size of gene sets. Network analysis of over-representation GO terms was performed using the Biological Networks Gene Ontology tool (BiNGO) plug-in for Cytoscape. BiNGO retrieved the relevant GO Biological process annotation then tested for significance using the hypergeometric test and corrected multiple testing using Benjamini and Hochberg false discovery rate (FDR) correction ≤0.05.

[2] = test system: DEN-induced hepatic neoplasia; assay: Serum ALT and AST in DEN-induced HCC model; format: in vivo, male Wistar rats; settings: HCC rats, oral gavage 5 days a week, weeks 17-19, safranal 200 mg/kg, sorafenib 10 mg/kg, mean±SEM, n=6
Protocol: (§1) A modified version of the protocol described by DePeralta et al. (2016) and Schiffer et al. (2005) was used here to establish the hepatocarcinogenesis model.
(§2) On the first 15 weeks, the control PBS group was treated with 1×PBS, whereas the experimental groups were given an intraperitoneal injection (IP) of 50 mg/kg of diethylnitrosoamine (DEN, Sigma Aldrich), a widely used chemical for inducing cancer, once a week. DEN was diluted with 1×PBS. Following a one-week break (week 16), the next three weeks (weeks 17 to 19) of treatment commenced. All drugs were administrated by oral gavage. All doses were chosen according to literature (Alsaied et al., 2014; Karafakioglu et al., 2017). For the HCC+sorafenib group, the drug (Carbosynth Limited) was administered at a dose of 10 mg/kg, five days a week. For the HCC+safranal group, the drug (Sigma Aldrich) was administered at a dose of 200 mg/kg, five days a week. For the HCC+safranal+sorafenib group, the drugs were administered at a dose of 200 mg/kg safranal+10 mg/kg sorafenib, five days a week. Both safranal and sorafenib were diluted with 1×PBS and drops of Tween 80. […] After 24-hours from last treatment, the rats were euthanized by mild diethyl ether and dissected in equal conditions. Blood and whole liver were collected.
Rats were euthanized then blood was collected by decapitation and processed for later investigation. The blood was collected in collection tubes (BD Vacutainer) and serum was separated by centrifugation at 1200× g for 10 minutes. Serum was collected and flash frozen immediately then stored at −80° C. for further analysis.
Alanine Transaminase (ALT), and Aspartate Aminotransferase (AST) assays were performed using commercial kits (Abcam), according to the protocol provided. ALT and AST activities were measured spectrophotometrically using Epoch by BioTek.

[3] = test system: DEN-induced hepatic neoplasia; assay: Western blotting of liver in DEN-induced HCC model; format: in vivo, male Wistar rats; settings: liver of HCC rats
Protocol: as §1, §2
One hundredth gm (10 mg) liver was homogenized using 200 μl RIPA buffer (Sigma Aldrich) mixed with 2 μl protease inhibitor and 2 μl phosphatase inhibitor (Sigma Aldrich), and centrifuged at 4° C., 15,000 rpm for 15 minutes. Whole cell lysate was taken and stored at −80° C. Protein concentration was measured by Pierce BCA Protein Assay Kit with Promega GloMax Discover. A total of 35 μg of protein was loaded on a sodium dodecyl sulfate-polyacrylamide gel electrophoresis gel. The gel was then transferred to polyvinylidene difluoride membrane. The membrane was then blocked with 5% BSA in TBST for one hour at room temperature. Membranes were incubated with anti-Proliferating Cell Nuclear Antigen (PCNA), anti-PolyADP-ribose Polymerase (PARP), anti-caspase-3 (Cell Signaling Technology Inc.), anti-caspase-9 (Novus Biologicals), anti-Bax, anti-Bcl-2 (Santa Cruz), anti-Cdk1, anti-Cyclin B1, anti-Cdc25B (Cell Signaling Technology Inc.) over night at 4° C., then with HRP conjugated secondary, anti-mouse or anti-rabbit, antibody (Cell Signaling Technology Inc.) for one hour at room temperature. All primary and secondary antibodies were diluted in 5% BSA in TBST. Blots were incubated in WesternSure PREMIUM Chemiluminescent Substrate for antibodies' detection. Signal was visualized using Bio-Rad ChemiDoc XRS+System. Band density and quantification was done using ImageJ (Amin et al., 2011). Total protein was used as a loading control and stained using SYPRO Ruby protein gel stain according to the protocol provided (Thermo Fisher Scientific) (Aldridge et al., 2008; Hu et al., 2016).

[4] = male rats, oral (Hosseinzadeh et al., 2013); cited from earlier work

CC1=C(C=O)C(C)(C)CC=C1 [safranal]
genes downregulated ([1]; 12 hours): 3,769 genes
genes upregulated ([1]; 12 hours): 2,812 genes
genes significantly differentially expressed ([1]; 12 hours): 6,581 genes
genes downregulated ([1]; 24 hours): 5,331 genes
genes upregulated ([1]; 24 hours): 2,458 genes
genes significantly differentially expressed ([1]; 24 hours): 7,789 genes
N, GO term Cell migration ([1]; Downregulated 12 h): 28
N, GO term Growth ([1]; Downregulated 12 h): 27
N, GO term Wound healing ([1]; Downregulated 12 h): 25
N, GO term Cell adhesion ([1]; Downregulated 24 h): 149
N, GO term Signal transduction ([1]; Downregulated 24 h): 327
N, GO term Wound healing ([1]; Downregulated 24 h): 32
N, GO term Cellular Response to DNA damage stimulus ([1]; Upregulated 12 h): 48
N, GO term Proteasome-mediated ubiquitin-dependent protein catabolic process ([1]; Upregulated 12 h): 47
N, GO term Response to unfolded protein ([1]; Upregulated 12 h): 14
N, GO term Apoptotic mitochondrial changes ([1]; Upregulated 24 h): 6
N, GO term Proteasome-mediated ubiquitin-dependent protein catabolic process ([1]; Upregulated 24 h): 50
N, GO term Response to unfolded protein ([1]; Upregulated 24 h): 12
ALT [2]: 10.93 ± 0.29^b**^,c* mU/ml
AST [2]: 7.80 ± 2.02 mU/ml
Bax/Bcl-2 ratio [3]: favored the apoptotic effect
TDP1 levels [3]: lower levels of TDP1
expression of pro-caspases-9 & 3 and whole PARP ([3]; compared to HCC group): significantly decreased
expression of anti-apoptotic protein Bcl-2 ([3]; compared to HCC groups): decreased
expression of pro-apoptotic protein Bax ([3]; compared to HCC groups): increased
Cdk1, cyclin B1, Cdc25B levels ([3]; comparing to HCC animals): significantly decreased their levels
PCNA (proliferation-related protein) ([3]; n=4): significantly downregulated PCNA
oral LD50 [4]: 5.53 mL/kg
